Data as given in patent US7601716B2, “Pyridopyrazines and derivatives thereof as ALK and c-Met inhibitors” (Cephalon, Inc., priority 2006, dated 2009).

How the values were obtained:
[1] = target: baculovirus-expressed ALK (Homo sapiens, UniProt Q9UM73); test: ALK Kinase Assay (ELISA/TRF, PLC-γ substrate); assay type: biochemical; conditions: read-out: ALK Kinase Inhibition (IC50); note: 1 µM ATP (Km level)
How it was run: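 An ELISA adapted from a trkA format was used: wells carried GST-fused PLC-γ substrate, and enzyme addition (30 ng/ml ALK) started a 15-minute reaction at 37° C.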

[2] = target: T1, c-Met (cytoplasmic domain) (Homo sapiens, UniProt P08581); test: c-Met Kinase Assay (ELISA/TRF, PLC-γ substrate); assay type: biochemical; conditions: 3 μM ATP (Km level); read-out: c-Met Kinase Inhibition (IC50)
T1 construct: Reactions were initiated with 30 ng/mL c-Met (cytoplasmic domain, Invitrogen Corporation #PV3143); purchased Invitrogen Corporation PV3143
How it was run: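 c-Met cytoplasmic domain (30 ng/mL) phosphorylates plate-coated GST–PLC-γ for 15 min at 37 °C. Phosphotyrosine detected with Eu-labeled PT66 antibody by time-resolved fluorescence. IC50 from variable-slope sigmoidal fit of % inhibition vs log concentration.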

Sequence of baculovirus-expressed ALK (Q9UM73 19-1620): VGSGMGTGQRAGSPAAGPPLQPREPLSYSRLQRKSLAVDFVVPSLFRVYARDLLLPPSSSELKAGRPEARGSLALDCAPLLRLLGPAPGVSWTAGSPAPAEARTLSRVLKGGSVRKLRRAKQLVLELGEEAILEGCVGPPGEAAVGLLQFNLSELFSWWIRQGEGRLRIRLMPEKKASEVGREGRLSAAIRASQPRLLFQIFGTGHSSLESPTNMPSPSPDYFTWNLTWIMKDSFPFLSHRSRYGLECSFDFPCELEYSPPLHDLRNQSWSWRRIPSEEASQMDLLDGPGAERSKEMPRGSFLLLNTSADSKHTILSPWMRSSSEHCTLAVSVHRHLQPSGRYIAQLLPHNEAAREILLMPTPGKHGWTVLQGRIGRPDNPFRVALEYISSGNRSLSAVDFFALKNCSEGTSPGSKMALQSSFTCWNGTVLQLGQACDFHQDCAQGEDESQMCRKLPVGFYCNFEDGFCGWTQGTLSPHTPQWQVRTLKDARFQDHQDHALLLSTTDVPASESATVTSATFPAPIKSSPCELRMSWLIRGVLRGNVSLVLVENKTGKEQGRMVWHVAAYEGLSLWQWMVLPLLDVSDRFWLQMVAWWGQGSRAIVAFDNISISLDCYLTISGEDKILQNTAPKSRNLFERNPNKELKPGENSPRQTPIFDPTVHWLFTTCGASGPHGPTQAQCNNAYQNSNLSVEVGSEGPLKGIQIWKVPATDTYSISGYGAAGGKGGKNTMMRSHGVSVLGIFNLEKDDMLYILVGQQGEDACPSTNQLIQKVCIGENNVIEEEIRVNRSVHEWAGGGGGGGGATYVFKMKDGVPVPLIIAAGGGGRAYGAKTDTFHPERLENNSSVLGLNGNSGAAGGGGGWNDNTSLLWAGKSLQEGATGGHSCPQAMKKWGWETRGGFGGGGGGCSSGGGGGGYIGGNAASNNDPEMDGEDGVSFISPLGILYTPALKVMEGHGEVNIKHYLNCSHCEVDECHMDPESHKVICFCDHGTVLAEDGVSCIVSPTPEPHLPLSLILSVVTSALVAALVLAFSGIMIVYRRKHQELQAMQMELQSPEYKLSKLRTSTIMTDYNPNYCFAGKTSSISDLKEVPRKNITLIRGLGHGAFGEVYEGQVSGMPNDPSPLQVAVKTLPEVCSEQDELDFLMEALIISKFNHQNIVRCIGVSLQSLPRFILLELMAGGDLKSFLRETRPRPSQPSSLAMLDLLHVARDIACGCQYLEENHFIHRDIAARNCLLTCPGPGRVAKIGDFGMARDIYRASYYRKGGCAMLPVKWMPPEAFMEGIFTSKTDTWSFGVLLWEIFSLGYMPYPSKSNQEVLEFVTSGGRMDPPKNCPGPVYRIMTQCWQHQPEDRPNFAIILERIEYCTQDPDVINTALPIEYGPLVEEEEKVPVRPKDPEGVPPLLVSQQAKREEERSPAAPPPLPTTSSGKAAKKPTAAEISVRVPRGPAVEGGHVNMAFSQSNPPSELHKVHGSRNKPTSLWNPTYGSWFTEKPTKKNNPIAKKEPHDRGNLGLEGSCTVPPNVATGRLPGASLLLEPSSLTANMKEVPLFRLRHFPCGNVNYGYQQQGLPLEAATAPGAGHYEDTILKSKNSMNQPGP
T1 sequence (P08581 956-1390 limits assumed): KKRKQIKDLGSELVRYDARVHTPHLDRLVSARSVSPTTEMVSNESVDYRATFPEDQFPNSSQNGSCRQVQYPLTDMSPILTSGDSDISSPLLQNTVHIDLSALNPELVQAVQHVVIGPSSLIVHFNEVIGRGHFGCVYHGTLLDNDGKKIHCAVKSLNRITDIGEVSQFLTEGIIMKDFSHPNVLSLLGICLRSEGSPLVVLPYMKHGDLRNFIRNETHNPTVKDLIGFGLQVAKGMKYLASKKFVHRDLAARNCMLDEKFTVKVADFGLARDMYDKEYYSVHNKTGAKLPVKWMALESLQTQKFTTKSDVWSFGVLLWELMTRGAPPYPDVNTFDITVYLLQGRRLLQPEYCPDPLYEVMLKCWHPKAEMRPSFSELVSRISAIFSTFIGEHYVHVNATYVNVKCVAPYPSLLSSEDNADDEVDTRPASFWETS

Row | SMILES | IC50 [1] [µM] | IC50 [2] [µM] | melting point
1 | O=C(O)c1ccc(-c2cnc3c(c2)N(Cc2ccccc2)C(=O)CN3)cc1 [Example 10, 4-(1-Benzyl-2-oxo-1,2,3,4-tetrahydropyrido[2,3-b]pyrazin-7-yl)benzoic acid] | 10 to 100 | > 100 | > 200 °C
2 | O=C(c1ccc(-c2cnc3c(c2)N(Cc2cc(Cl)ccc2C(F)(F)F)CCN3)cc1)N1CCN(c2nccs2)CC1 [Example 288, (4-{1-[5-Chloro-2-(trifluoromethyl)benzyl]-1,2,3,4-tetrahydropyrido[2,3-b]pyrazin-7-yl}phenyl)-(4-thiazol-2-yl-piperazin-1-yl)methanone] | 0.1 to 1 | 10 to 100 | 243 to 244 °C
3 | CN1CCN(c2ccc(-c3cnc4c(c3)N(Cc3c(F)ccc(F)c3Cl)CC(=O)N4)cn2)CC1 [Example 437, 1-(2-Chloro-3,6-difluorobenzyl)-7-[6-(4-methylpiperazin-1-yl)pyridin-3-yl]-1,4-dihydro-2H-pyrido[2,3-b]pyrazin-3-one] | 0.1 to 1 | 1 to 10 | 235 to 236 °C (dec.)
4 | N#Cc1cnc2c(c1)N(Cc1cc(F)ccc1F)CCN2 [Example 77, 1-(2,5-Difluorobenzyl)-1,2,3,4-tetrahydropyrido[2,3-b]pyrazine-7-carbonitrile] | 1 to 10 | > 100 | 204 to 206 °C
5 | OC1CNc2ncc(I)cc2N1Cc1cc(F)ccc1C(F)(F)F (stereo not drawn) [Example 134, 1-(5-Fluoro-2-trifluoromethylbenzyl)-7-iodo-1,2,3,4-tetrahydropyrido[2,3-b]pyrazin-2-ol] | 10 to 100 | 10 to 100 | 142 °C (dec.)
6 | Clc1cccc(Cl)c1CN1CCNc2ncc(I)cc21 [Example 162, 1-(2,6-Dichlorobenzyl)-7-iodo-1,2,3,4-tetrahydropyrido[2,3-b]pyrazine] | 1 to 10 | 10 to 100 | > 200 °C
7 | O=C1CNc2ncc(I)cc2N1Cc1cc(C(F)(F)F)ccc1Cl [Example 116, 1-(2-Chloro-5-trifluoromethylbenzyl)-7-iodo-3,4-dihydro-1H-pyrido[2,3-b]pyrazin-2-one] | 10 to 100 | > 100 | 252 to 253 °C
8 | CCOC(=O)c1ccc(-c2cnc3c(c2)N(Cc2c(F)ccc(F)c2Cl)C(=O)CN3)cc1 [Example 5, 4-[1-(2-Chloro-3,6-difluorobenzyl)-2-oxo-1,2,3,4-tetrahydropyrido[2,3-b]pyrazin-7-yl]benzoic acid ethyl ester] | 1 to 10 | > 100 | 180 to 182 °C
9 | COC(=O)c1cccc(-c2cnc3c(c2)N(Cc2ccccc2)C(=O)CN3)c1 [Example 30, 3-(1-Benzyl-2-oxo-1,2,3,4-tetrahydropyrido[2,3-b]pyrazin-7-yl)benzoic acid methyl ester] | 1 to 10 | 10 to 100 | 211 °C
10 | CN1CCN(C(=O)c2ccc(-c3cnc4c(c3)N(Cc3cc(F)c(F)cc3F)C(=O)CN4)cc2)CC1 [Example 85, 7-[4-(4-Methylpiperazine-1-carbonyl)phenyl]-1-(2,4,5-trifluorobenzyl)-3,4-dihydro-1H-pyrido[2,3-b]pyrazin-2-one] | 10 to 100 | 10 to 100 | 238 °C
11 | CN1CCN(c2ccc(-c3cnc4c(c3)N(S(=O)(=O)c3ccccc3Cl)CCN4)cn2)CC1 [Example 126, 1-(2-Chlorobenzenesulfonyl)-7-[6-(4-methylpiperazin-1-yl)pyridin-3-yl]-1,2,3,4 tetrahydropyrido[2,3-b]pyrazine] | 0.1 to 1 | 1 to 10 | 164 to 165 °C
12 | FC(F)(F)c1ccc(Cl)c(CN2CCNc3ncc(I)cc32)c1 [Example 119, 1-(2-Chloro-5-trifluoromethylbenzyl)-7-iodo-1,2,3,4-tetrahydropyrido[2,3-b]pyrazine] | > 100 | > 100 | 120 to 125 °C
13 | CC(C)(C)OC(=O)N1CC=C(c2cnc3c(c2)N(Cc2cc(Cl)ccc2Cl)CCN3)CC1 [Example 130, 4-[1-(2,5-Dichlorobenzyl)-1,2,3,4-tetrahydropyrido[2,3-b]pyrazin-7-yl]-3,6-dihydro-2H-pyridine-1-carboxylic acid tert-butyl ester] | 1 to 10 | 10 to 100 | 92 to 95 °C
14 | CCOC(=O)c1ccc(-c2cnc3c(c2)N(Cc2c(Cl)cccc2Cl)C(=O)CN3)cc1 [Example 139, 4-[1-(2,6-Dichlorobenzyl)-2-oxo-1,2,3,4-tetrahydropyrido[2,3-b]pyrazin-7-yl]benzoic acid ethyl ester] | 10 to 100 | 10 to 100 | 226 °C
15 | CN(C)CCCCCCNC(=O)c1ccc(-c2cnc3c(c2)N(Cc2ccccc2)C(=O)CN3)cc1 [Example 16, 4-(1-benzyl-2-oxo-1,2,3,4-tetrahydropyrido[2,3-b]pyrazin-7-yl)-N-(6-dimethylaminohexyl)benzamide] | 1 to 10 | 10 to 100 | > 200 °C
16 | CN1CCN(C(=O)c2ccc(-c3cnc4c(c3)N(Cc3cc(F)ccc3F)C(=O)CN4)cc2)CC1 [Example 59, 1-(2,5-Difluorobenzyl)-7-[4-(4-methylpiperazine-1-carbonyl)phenyl]-3,4-dihydro-1H-pyrido[2,3-b]pyrazin-2-one] | 0.1 to 1 | 10 to 100 | 223 °C (dec.)
17 | CC1(C)Nc2ncc(I)cc2NC1=O [Example 91, 7-Iodo-3,3-dimethyl-3,4-dihydro-1H-pyrido[2,3-b]pyrazin-2-one] | > 100 | 10 to 100 | > 300 °C
18 | O=C(c1ccc(-c2cnc3c(c2)N(Cc2c(Cl)cccc2Cl)C(=O)CN3)cc1)N1CCC(N2CCCC2)CC1 [Example 161, 1-(2,6-Dichlorobenzyl)-7-[4-(4-(pyrrolidin-1-yl)piperidine-1-carbonyl)phenyl]-3,4-dihydro-1H-pyrido[2,3-b]pyrazin-2-one] | 0.1 to 1 | 0.1 to 1 | 199 °C
19 | Fc1ccc(F)c(CN2CCNc3ncc(-c4cnc(N5CCOCC5)nc4)cc32)c1Cl [Example 107, 1-(2-Chloro-3,6-difluorobenzyl)-7-(2-morpholin-4-yl-pyrimidin-5-yl)-1,2,3,4-tetrahydropyrido[2,3-b]pyrazine] | < 0.1 | 10 to 100 | 250 to 251 °C
20 | Fc1ccc(F)c(CN2CCNc3ncc(-c4cn[nH]c4)cc32)c1Cl [Example 192, 1-(2-Chloro-3,6-difluorobenzyl)-7-(1H-pyrazol-4-yl)-1,2,3,4-tetrahydropyrido[2,3-b]pyrazine] | < 0.1 | 0.1 to 1 | 272 °C
21 | O=C1CNc2ncc(I)cc2N1Cc1cc(Cl)ccc1Cl [Example 155, 1-(2,5-Dichlorobenzyl)-7-iodo-3,4-dihydro-1H-pyrido[2,3-b]pyrazin-2-one] | 10 to 100 | > 100 | > 200 °C
22 | CN1CCN(c2ccc(-c3cnc4c(c3)NCCN4)cn2)CC1 [Example 109, 7-[6-(4-Methylpiperazin-1-yl)pyridin-3-yl]-1,2,3,4-tetrahydropyrido[2,3-b]pyrazine] | 10 to 100 | > 100 | 225 °C (dec.)
23 | Clc1ccc(Cl)c(CN2CCNc3ncc(-c4ccc(N5CCCC5)nc4)cc32)c1 [Example 166, 1-(2,5-Dichlorobenzyl)-7-(6-pyrrolidin-1-yl-pyridin-3-yl)-1,2,3,4-tetrahydropyrido[2,3-b]pyrazine] | 0.1 to 1 | > 100 | > 200 °C
24 | O=C1CCNc2nc(Br)ccc21 [Example 266, 7-bromo-2,3-dihydro-1H-[1,8]naphthyridin-4-one] | > 100 | > 100 | 196 to 197 °C
25 | O=C(O)c1cnc2c(c1)N(Cc1cc(Cl)ccc1Cl)CCN2 [Example 128, 1-(2,5-Dichlorobenzyl)-1,2,3,4-tetrahydropyrido[2,3-b]pyrazine-7-carboxylic acid] | > 100 | 10 to 100 | 273 °C (dec.)
26 | O=C(c1ccc(-c2cnc3c(c2)N(Cc2ccccc2)CCN3)cc1)N1CCC(N2CCCC2)CC1 [Example 39, [4-(1-Benzyl-1,2,3,4-tetrahydropyrido[2,3-b]pyrazin-7-yl)phenyl]-(4-(pyrrolidin-1-yl)piperidin-1-yl)methanone] | 1 to 10 | 10 to 100 | 120 °C
27 | O=C(Cc1cc(F)ccc1F)N1CCNc2ncc(I)cc21 [Example 112, 2-(2,5-Difluorophenyl)-1-(7-iodo-3,4-dihydro-2H-pyrido[2,3-b]pyrazin-1-yl)ethanone] | 10 to 100 | 10 to 100 | 152 to 153 °C
28 | CCOC(=O)CNc1ncc(I)cc1[N+](=O)[O-] [Example 1, (5-Iodo-3-nitro-pyridin-2-ylamino)-acetic acid ethyl ester] | 10 to 100 | 10 to 100 | 200 °C (dec.)
29 | NCC#Cc1cnc2c(c1)N(Cc1cc(Cl)ccc1Cl)CCN2 [Example 169, 3-[1-(2,5-Dichlorobenzyl)-1,2,3,4-tetrahydropyrido[2,3-b]pyrazin-7-yl]prop-2-ynylamine] | 0.1 to 1 | 10 to 100 | 183 °C
30 | Cn1cc(-c2cnc3c(c2)N(Cc2cc(Cl)ccc2C(F)(F)F)CCN3)cn1 [Example 203, 1-[5-Chloro-2-(trifluoromethyl)benzyl]-7-(1-methyl-1H-pyrazol-4-yl)-1,2,3,4-tetrahydropyrido[2,3-b]pyrazine] | 0.1 to 1 | 1 to 10 | 156 °C
